Consider two molecules from ChEMBL document CHEMBL1155440, “1-(5-carboxyindol-1-yl)propan-2-one inhibitors of human cytosolic phospholipase A(2)alpha with reduced lipophilicity: synthesis, biological activity, metabolic stability, solubility, bioavailability, and topical in vivo activity” (J Med Chem, 2010).

One may read the logP as the decadic logarithm of the partition coefficient of the neutral form, usually between octanol and water. Read a high logP as higher lipophilicity. Broadly, the IC50 is the concentration that inhibits the measured activity by half.

Series [1] is described as follows: Drug level in C57Bl6 mouse plasma at 10 mg/kg, iv after 30 mins by UV-reverse phase HPLC analysis. Details: dose 10 mg/kg, route intravenous. To be noted: read-out: Drug uptake. The series is classed as ADME, organism-based.
The nature of series [2]: Drug level in C57Bl6 mouse bile at 10 mg/kg, iv after 30 mins by HPLC/MS analysis. To be noted: read-out: Drug uptake. The series is classed as ADME, organism-based. Details: dose 10 mg/kg, route intravenous.
Series [3] can be described thus: Drug level in C57Bl6 mouse plasma at 10 mg/kg, po after 2 hrs by UV-reverse phase HPLC analysis. The series is classed as ADME, organism-based. Details: dose 10 mg/kg, route oral. To be noted: read-out: Drug uptake.
The nature of series [4]: Drug level in C57Bl6 mouse plasma at 100 mg/kg, po after 1 hr by UV-reverse phase HPLC analysis. The series is classed as ADME, organism-based. To be noted: read-out: Drug uptake. Details: dose 100 mg/kg, route oral.
Series [5] in a line: Drug level in C57Bl6 mouse plasma at 10 mg/kg, iv after 5 mins by UV-reverse phase HPLC analysis. The conditions noted are these: read-out: Drug uptake. The series is classed as ADME, organism-based. Details: dose 10 mg/kg, route intravenous.
Series [6] is described as follows: Drug level in C57Bl6 mouse plasma at 10 mg/kg, po after 1 hr by UV-reverse phase HPLC analysis. It counts as ADME, organism-based. On the set-up: dose 10 mg/kg, route oral. The conditions noted are these: read-out: Drug uptake.
Series [7] in a line: Drug level in C57Bl6 mouse plasma at 100 mg/kg, po after 2 hrs by UV-reverse phase HPLC analysis. The series is classed as ADME, organism-based. On the set-up: dose 100 mg/kg, route oral. The conditions noted are these: read-out: Drug uptake.
The nature of series [8]: Drug level in C57Bl6 mouse bile at 100 mg/kg, po after 2 hrs by HPLC/MS analysis. The series is classed as ADME, organism-based. On the set-up: dose 100 mg/kg, route oral. The conditions noted are these: read-out: Drug uptake.
Series [9] deals with Mus musculus. The series is described as follows: Antiinflammatory activity in BALB/c mouse assessed as inhibition of benzalkonium chloride-induced ear edema at 0.1 to 1 mg/ear administered topically after 10 mins of benzalkonium chloride challenge measured after 1 hr of induction of dermatitis. The series is classed as functional, organism-based.
Series [10] deals with Mus musculus. The series is described as follows: Antiinflammatory activity in BALB/c mouse assessed as inhibition of benzalkonium chloride-induced ear edema at 0.1 to 1 mg/ear administered topically after 10 mins of benzalkonium chloride challenge measured after 7 hrs of induction of dermatitis. The series is classed as functional, organism-based.
Series [11] addresses T1, 85/88 kDa calcium-independent phospholipase A2 (Rattus norvegicus) (UniProt P97570).
T1 sequence (whole entry): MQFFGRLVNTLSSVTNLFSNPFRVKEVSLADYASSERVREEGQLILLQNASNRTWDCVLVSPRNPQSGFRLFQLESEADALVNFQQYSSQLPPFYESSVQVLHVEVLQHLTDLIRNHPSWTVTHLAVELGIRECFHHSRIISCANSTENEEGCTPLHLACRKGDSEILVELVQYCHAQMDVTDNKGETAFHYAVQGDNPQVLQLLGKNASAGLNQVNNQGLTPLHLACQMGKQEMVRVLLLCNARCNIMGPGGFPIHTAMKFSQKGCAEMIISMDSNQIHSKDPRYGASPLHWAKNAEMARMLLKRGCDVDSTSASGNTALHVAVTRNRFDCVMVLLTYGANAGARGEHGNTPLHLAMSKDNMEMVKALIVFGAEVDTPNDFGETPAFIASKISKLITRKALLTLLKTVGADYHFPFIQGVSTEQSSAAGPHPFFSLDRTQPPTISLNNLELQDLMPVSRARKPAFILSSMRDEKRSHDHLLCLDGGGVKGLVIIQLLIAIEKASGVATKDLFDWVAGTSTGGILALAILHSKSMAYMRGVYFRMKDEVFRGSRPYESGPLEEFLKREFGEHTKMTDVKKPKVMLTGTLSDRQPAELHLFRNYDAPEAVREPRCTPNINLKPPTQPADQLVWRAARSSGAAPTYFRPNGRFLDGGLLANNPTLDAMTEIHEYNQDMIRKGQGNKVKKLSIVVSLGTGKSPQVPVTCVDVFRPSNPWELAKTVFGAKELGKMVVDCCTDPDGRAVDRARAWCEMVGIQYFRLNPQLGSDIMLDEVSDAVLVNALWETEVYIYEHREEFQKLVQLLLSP
The experiment in a line: Inhibition of Sprague-Dawley rat brain iPLA2 assessed as inhibition of substrate cleavage at 10 uM after 60 mins by HPLC analysis.

Series [12] deals with Mus musculus. The series is described as follows: Antiinflammatory activity in topically dosed BALB/c mouse assessed as inhibition of benzalkonium chloride-induced ear edema administered after 10 mins of benzalkonium chloride challenge measured after 1 to 7 hrs of induction of dermatitis. It counts as functional, organism-based.
The target in series [13] is Phospholipase A2, major isoenzyme (Sus scrofa) (UniProt P00592). The experiment in a line: Inhibition of pig pancreas group 1B sPLA2 assessed as inhibition of POPG cleavage at 10 uM after 30 mins by HPLC analysis.
Series [14] relates to Mus musculus. The experiment in a line: Antiinflammatory activity in BALB/c mouse assessed as inhibition of benzalkonium chloride-induced ear edema at 0.005 mg/ear administered topically after 10 mins of benzalkonium chloride challenge measured after 7 hrs of induction of dermatitis. It counts as functional.
Series [15] in a line: Partition coefficient, log P at 5 mM by reverse phase HPLC analysis. The series is classed as physicochemical. The conditions noted are these: octanol/water.
Series [16] can be described thus: Inhibition of TPA-induced cPLA2alpha in human platelets assessed as inhibition of arachidonic acid production after 60 mins by UV-reverse phase HPLC analysis. To be noted: 1 h.
Series [17] concerns Mus musculus. The series is described as follows: Antiinflammatory activity in BALB/c mouse assessed as inhibition of benzalkonium chloride-induced ear edema at 0.1 mg/ear administered topically after 10 mins of benzalkonium chloride challenge measured after 7 hrs of induction of dermatitis. It counts as functional.
Series [18] relates to Mus musculus. The experiment in a line: Antiinflammatory activity in BALB/c mouse assessed as inhibition of benzalkonium chloride-induced ear edema at 0.01 mg/ear administered topically after 10 mins of benzalkonium chloride challenge measured after 5 to 7 hrs of induction of dermatitis. The series is classed as functional, organism-based.
The subject of series [19] is Mus musculus. The series is described as follows: Antiinflammatory activity in BALB/c mouse assessed as inhibition of benzalkonium chloride-induced ear edema at 0.1 to 1 mg/ear administered topically after 10 mins of benzalkonium chloride challenge measured after 5 hrs of induction of dermatitis. The series is classed as functional, organism-based.

The source made the active and inactive calls. No cut-off for these calls is given here.

Chain of Phospholipase A2, major isoenzyme (Sus scrofa) (P00592 23-146 limits assumed): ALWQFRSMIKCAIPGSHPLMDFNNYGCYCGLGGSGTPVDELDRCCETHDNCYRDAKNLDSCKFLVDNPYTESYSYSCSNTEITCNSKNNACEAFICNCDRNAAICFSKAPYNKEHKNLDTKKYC

With `CC(C)C(=O)c1cn(CC(O)COc2ccc(Oc3ccccc3)cc2)c2ccc(C(=O)O)cc12` (centres undefined), the concentration at 0.5 h was determined as 500 ng/mL in [1] and 96000 ng/mL in [2]. For the same molecule, the results for the concentration at 2 h in [3], in [7] and in series [8] were 34000 ng/mL, 300 ng/mL and 42000 ng/mL, respectively. The concentration at 1 h amounted to 1700 ng/mL in [4] and 42000 ng/mL in [6]. Besides, in series [5], the concentration at 5 min came to 6200 ng/mL.
On to `CC(C)C(=O)c1cn(CC(=O)COc2ccc(Oc3ccccc3)cc2)c2ccc(C(=O)O)cc12`, for which the inhibition result in [9], in [10] and in series [19] was “Active” in each case. Also, the inhibition result in series [11], in [13] and in series [18] was “inactive” each time. Moreover, the inhibition entry in series [12] is “Dose-dependent effect”. Further, the “inhibition (INH)” value in series [14] worked out at 90%; in [17], 84%. This molecule also gave a logP at 5000 µM in series [15] of 3.5. Moreover, the IC50 in series [16] was 15 nM.
